Molecules are shown by their SMILES.

What all share (format): cell-based
The target in assay [1] is T1, GALR3 single mutant A^191F (Homo sapiens, UniProt O60755, A191F).
T1 construct: expressed in transfected cells; host or cells: HEK293 cells stably expressing Gqi
Description: SRE-luc luciferase assay, GALR3 A191F. The conditions noted are these: GALR3 A^191F; SRE-luc in HEK293 Gqi cells, ligand 6 h; mean ± S.E.; SEM. The text has this: (§1) For domain swapping between GALR2 and GALR3, individual cDNA fragments of interest were amplified by polymerase chain reaction (PCR) with Pfu polymerase (ELPIS Biotech, Daejeon, Korea) and two specific primers, one corresponding to the 5' or 3' end of the GALR2 or GALR3 cDNA and the other to the region of overlap between the two receptors. The two resulting fragments, one from GALR2 and the other from GALR3, were subjected to a second round of PCR to generate the chimeric cDNAs. To construct single, double-, triple-, pentuple-, hextuple-, and septuple-mutant receptors, amino acids of GALR3 were substituted for the amino acids at the corresponding positions in GALR2 using PCR-based site-directed mutagenesis. All of the chimeric constructs were cloned into the pcDNA3 expression vector at HindⅢ and XbaⅠ sites. The DNA sequences of the chimeras were verified by automatic sequencing. […] The luciferase activity in 50 μl cell extract was determined using a luciferase assay system according to the standard protocol for the Synergy 2 Multi-Mode Microplate Reader (BioTek, Winooski, VT, USA). […] The concentrations of agonists that induced half-maximal stimulation (EC50) were calculated using the GraphPad PRISM5 software (GraphPad software, Inc., San Diego, CA). […]

Assay [2] deals with T2, GALR3 single mutant A^264P (Homo sapiens, UniProt O60755, A264P).
T2 construct: expressed in transfected cells; host or cells: HEK293 cells stably expressing Gqi
T2 sequence (O60755 whole entry A264P): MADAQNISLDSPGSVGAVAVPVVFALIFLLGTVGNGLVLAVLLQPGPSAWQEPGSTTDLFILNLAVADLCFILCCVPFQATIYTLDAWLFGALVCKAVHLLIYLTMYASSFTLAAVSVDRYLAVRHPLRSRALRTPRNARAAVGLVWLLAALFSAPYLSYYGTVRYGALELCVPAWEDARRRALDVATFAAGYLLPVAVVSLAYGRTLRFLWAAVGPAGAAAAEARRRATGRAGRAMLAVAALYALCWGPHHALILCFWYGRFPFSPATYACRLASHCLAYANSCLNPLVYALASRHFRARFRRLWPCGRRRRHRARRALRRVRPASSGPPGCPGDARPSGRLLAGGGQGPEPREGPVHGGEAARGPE
Description: SRE-luc luciferase assay, GALR3 A264P. The conditions noted are these: GALR3 A^264P; SRE-luc in HEK293 Gqi cells, ligand 6 h; mean ± S.E.; SEM.
From the text: as §1

The target of assay [3] is T3, GALR3 single mutant C^272L (Homo sapiens, UniProt O60755, C272L).
T3 construct: expressed in transfected cells; host or cells: HEK293 cells stably expressing Gqi
T3 sequence (O60755 whole entry C272L): as the sequence (O60755 whole entry A264P) above, with P264A, C272L counted along it
Kind of assay: SRE-luc luciferase assay, GALR3 C272L. As to conditions: GALR3 C^272L; SRE-luc in HEK293 Gqi cells, ligand 6 h; mean ± S.E.; SEM.
From the text: as §1

The target in another assay is T4, GALR3 (Homo sapiens, UniProt O60755).
T4 sequence (O60755 1-368): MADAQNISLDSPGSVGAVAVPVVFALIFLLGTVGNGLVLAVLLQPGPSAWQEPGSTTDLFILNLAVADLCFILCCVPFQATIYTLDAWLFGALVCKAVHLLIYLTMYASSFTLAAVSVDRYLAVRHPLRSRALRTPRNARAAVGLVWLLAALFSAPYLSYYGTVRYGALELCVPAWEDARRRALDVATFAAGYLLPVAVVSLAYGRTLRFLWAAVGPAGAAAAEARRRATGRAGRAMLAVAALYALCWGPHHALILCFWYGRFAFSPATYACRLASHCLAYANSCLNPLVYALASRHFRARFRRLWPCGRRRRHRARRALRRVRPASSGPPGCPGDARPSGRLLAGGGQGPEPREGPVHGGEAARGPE
Kind of assay: cAMP assay (inhibition of forskolin-induced cAMP), WT GALR3. Also on record: expressed in transfected cells; host or cells: HEK293 cells stably expressing pGlosensor-22F cAMP plasmid. As to conditions: Glosensor-22F cAMP HEK293 cells, agonist 10 min then forskolin 10 μM, mean ± SE, SEM. As for the experimental part: SPX-induced or Qu-SPX-induced cyclic adenosine monophosphate (cAMP) mobilization was measured in HEK293 cells stably expressing the pGlosensor^TM-22F cAMP plasmid (Promega Corp., Madison, WI, USA). The Glosensor-22F cAMP HEK293 cells were seeded on 96-well plates at a density of 2.0 × 10^4 cells/well 24 h before transfection. A mixture including 100 ng expression plasmid and lipofectamine 2000 reagent in diluted Opti-MEM (Gibco) was incubated at room temperature for 20 min. The mixtures were added into each well according to the manufacturer's instructions (Invitrogen, CA, USA). After 48 h, Glosensor cAMP substrates were added to the transfected cells in CO2-independent media. After 2 h, the cells were incubated with a range of agonist concentrations or vehicle for 10 min and then exposed to foskolin (10 μM). Luminescence was measured for up to 30 min using a Microplate Reader (BioTek, Winooski, VT, USA).
Data analysis was performed by non-linear regression with a sigmoidal dose-response curve. The concentrations of agonists that induced half-maximal stimulation (EC50) were calculated using the GraphPad PRISM5 software (GraphPad software, Inc., San Diego, CA). All data are presented as the mean ± standard error (SE) of at least three independent experiments. […]
For orientation: Changes in cAMP serve as a functional read-out for many G protein-coupled receptors.

T1 sequence (O60755 whole entry A191F): as the sequence (O60755 whole entry A264P) above, with A191F, P264A counted along it

Turning to `CSCC[C@H](NC(=O)[C@H](C)NC(=O)[C@H](CCC(N)=O)NC(=O)[C@@H]1CCCN1C(=O)[C@@H](NC(=O)[C@H](Cc1c[nH]c2ccccc12)NC(=O)[C@@H](N)CC(N)=O)[C@@H](C)O)C(=O)N[C@@H](CC(C)C)C(=O)N[C@@H](Cc1ccc(O)cc1)C(=O)N[C@@H](CC(C)C)C(=O)N[C@@H](CCCCN)C(=O)NCC(=O)N[C@@H](C)C(=O)N[C@@H](CCC(N)=O)C(N)=O` [SPX, reference compound], the EC50 – broadly, the concentration at which the effect is half-maximal – in assay [1] came out at 0.0912 ± 0.031 µM; in assay [2], 0.274 ± 0.076 µM; in assay [3], 0.0288 ± 0.00696 µM; at GALR3, 0.117 ± 0.0514 µM.

The record behind these values is publication PMC7108740, “Exploring the molecular structures that confer ligand selectivity for galanin type II and III receptors” (PLoS ONE, 2020).
